In patent US20210008206A1, “ADENOSINE PATHWAY INHIBITORS FOR CANCER TREATMENT” (Corvus Pharmaceuticals, Inc., priority 2017, published 2021):

Columns and labels:
tumor biopsies = test: On-treatment vs pre-treatment tumor biopsies, IHC and Nanostring gene expression; type: in vivo, human; settings: on-treatment biopsies compared to pre-treatment biopsies
From the text: FIGS. 8A-8H show log2-fold changes in immunohistochemistry and gene expression (i.e., mRNA) by Nanostring on on-treatment biopsies compared to pre-treatment biopsies and identifies pharmacodynamics changes that are observed in CD73-high tumors treated with a compound of Formula (III). FIG. 8A compares CD8 infiltration, measured by IHC, in patients expressing low levels and high levels of CD73 (where the p=0.005) after treatment with the compound of Formula (III). FIG. 8B compares PD-L1 inflammation infiltration, measured by IHC, in patients expressing low levels and high levels of CD73 (p=0.15) after treatment with the compound of Formula (III). FIG. 8C compares CXCL9 (chemokine C-X-C motif ligand 9) gene expression in patients expressing low levels and high levels of CD73 (p=0.02) after treatment with the compound of Formula (III). […]
The patients were orally administered the compound of Formula (III) at a dose of 100 mg, twice a day, for twenty-eight days. Tumor biopsies and blood samples were analyzed from patients with renal cell carcinoma, non-small cell lung cancer, triple negative breast cancer, microsatellite instable colorectal cancer treated with the compound of Formula (III). Paired tumor biopsies were analyzed: gene expression profiles (Nanostring), CD8, PD-L1 and CD73 (IHC). […]

T cell function = test: Suppression of T cell function by adenosine; type: cell-based
[1] = system: patients with advanced cancers; test: Phase 1/1b clinical trial, tumor response by baseline biomarker level; type: in vivo, human; settings: for Objective response rate / Disease control rate: 100 mg orally twice a day, 28 days
Protocol: FIG. 3 is a graph showing tumor response to treatment with the compound of Formula (III) in patients expressing low levels of adenosine A2A receptors and patients expressing high levels of adenosine A2A receptors. RNA was extracted from pre-treatment tumor samples, and Nanostring was performed to arrive at the values described herein. The disease control rate was 0 of 11 patients who expressed low levels of adenosine A2A receptors, and was 9 of 26 patients who expressed high levels of adenosine A2A receptors. The objective response rate was 0 of II patients who expressed low levels of adenosine A2A receptors, and 1 of 26 patients who expressed high levels of adenosine A2A receptors.
FIG. 4 is a graph showing tumor response to treatment with the compound of Formula (III) in patients expressing low levels of CD73 and patients expressing high levels of CD73. RNA was extracted from pre-treatment tumor samples, and Nanostring was performed to arrive at the values described herein. The disease control rate was 1 of 9 patients who expressed low levels of CD73, and was 8 of 28 patients who expressed high levels of CD73. The objective response rate was 0 of 9 patients who expressed low levels of CD73, and was 1 of 28 patients who expressed high levels of CD73.
FIG. 5 is a graph showing tumor response to treatment with the compound of Formula (III) in patients expressing low levels of adenosine A2A receptors and/or CD73 and patients expressing high levels of both adenosine A2A receptors and CD73. RNA was extracted from pre-treatment tumor samples, and Nanostring was performed to arrive at the values described herein. The disease control rate was 8 of 21 patients who expressed low levels of adenosine A2A receptors and/or CD73, and was 1 of 16 patients who expressed high levels of both adenosine A2A receptors and CD73. The objective response rate was 1 of 21 patients who expressed low levels of adenosine A2A receptors and/or CD73, and was 0 of 16 patients who expressed high levels of both adenosine A2A receptors and CD73.
FIG. 6 is a graph showing tumor response to treatment with the compound of Formula (III) in patients expressing low levels of PD-L1 mRNA and patients expressing high levels of PD-L1 mRNA. RNA was extracted from pre-treatment tumor samples, and Nanostring was performed to arrive at the values described herein. The disease control rate was 3 of 17 patients who expressed low levels of PD-L1 mRNA, and was 6 of 20 patients who expressed high levels of PD-L1 mRNA. The objective response rate was 0 of 17 patients who expressed low levels of PD-L1 mRNA, and was 1 of 20 patients who expressed high levels of PD-L1 mRNA.
FIG. 7 is a graph showing tumor response to treatment with the compound of Formula (III) in patients having low levels of PD-L1 and patients having high levels of PD-L1. PD-L1 staining on immune cells was determined by immunohistochemistry using the SP142 antibody that detects PD-L1. The disease control rate was 7 of 24 patients who expressed low levels of PD-L1, and was 2 of 13 patients who expressed high levels of PD-L1. The objective response rate was 0 of 24 patients who expressed low levels of PD-L1, and was 1 of 13 patients who expressed high levels of PD-L1.
“Objective response rate” refers to the patients that had greater than 30% reduction in the sum of the longest dimensions of their assessed target tumor lesions.
The compound of Formula (III) is being investigated in an ongoing Phase 1/1b clinical trial in patients with advanced cancers (NCT02655822 at www.clinicaltrials.gov). Biomarker investigations were conducted to explore immune modulation in serial tumor biopsies and peripheral blood as well associations between adenosine pathway genes and clinical activity. […]

[2] = patients expressing high levels of both adenosine A2A receptors and CD73
[3] = patients expressing low levels of adenosine A2A receptors and/or CD73

Cc1ccc(-c2nc(N)nc3c2nnn3Cc2cccc(COC3CCOC3)n2)o1 (centres unmarked) [compound of Formula (III)]
Activity in preclinical models (Preclinical models): active in multiple preclinical models | Pharmacodynamics changes in IHC and gene expression (tumor biopsies): observed only in CD73-high tumors | Effect on suppression of T cell function by adenosine (T cell function): inhibits suppression of T cell function by adenosine | Objective response rate ([1]; patients expressing high levels of CD73): 1 of 28 | Disease control rate ([1]; patients expressing high levels of CD73 (Nanostring)): 8 of 28 | Objective response rate ([1]; patients expressing high levels of PD-L1 mRNA): 1 of 20 | Disease control rate ([1]; patients expressing high levels of PD-L1 mRNA (Nanostring)): 6 of 20 | Objective response rate ([1]; patients expressing high levels of adenosine A2A receptors): 1 of 26 | Disease control rate ([1]; patients expressing high levels of adenosine A2A receptors (Nanostring, pre-treatment tumor)): 9 of 26 | Disease control rate [1, 2]: 1 of 16 | Objective response rate [1, 2]: 0 of 16 | Objective response rate ([1]; patients expressing low levels of CD73): 0 of 9 | Disease control rate ([1]; patients expressing low levels of CD73 (Nanostring)): 1 of 9 | Objective response rate ([1]; patients expressing low levels of PD-L1 mRNA): 0 of 17 | Disease control rate ([1]; patients expressing low levels of PD-L1 mRNA (Nanostring)): 3 of 17 | Disease control rate ([1]; patients expressing low levels of adenosine A2A receptors (Nanostring, pre-treatment tumor)): 0 of 11 | Disease control rate [1, 3]: 8 of 21 | Objective response rate [1, 3]: 1 of 21 | Disease control rate ([1]; patients with high levels of PD-L1 (IHC on immune cells, SP142 antibody, ≥1%)): 2 of 13 | Objective response rate ([1]; patients with high levels of PD-L1 (IHC, SP142)): 1 of 13 | Disease control rate ([1]; patients with low levels of PD-L1 (IHC on immune cells, SP142 antibody, <1%)): 7 of 24 | Objective response rate ([1]; patients with low levels of PD-L1 (IHC, SP142)): 0 of 24 | Tumor regression ([1]; patients with elevated expression of adenosine A2A receptor genes, CD73 and PD-L1 in baseline tumor samples compared to patients having low expression): significant tumor regression
